Reference: patent publication US12404295B2, “(Hetero)aryl-methyl-thio-beta-D-galactopyranoside derivatives” (Idorsia Pharmaceuticals Ltd, priority 2019, dated 2025)
Where two headings read alike, the source gives them in different places.

Experiments:
human Gal-1 (hGal-1) = human Gal-1 (hGal-1) (Homo sapiens (Human), UniProt P09382); experiment: competitive binding assay: biotinylated hGal-1 binding to microplate-adsorbed asialofetuin (ASF); conditions: Table 15; read-out: IC50 (Galectin-1 inhibition)
How it was run: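 Biotinylated human Gal-1 (300-1000 ng/mL) competes with serially diluted compound for binding to ASF-coated plates, 3 h at 4° C. Bound protein detected with streptavidin-peroxidase and ABTS substrate (spectrophotometric). IC50 given as mean of several measurements.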

human Gal-3 (hGal-3) = human Gal-3 (hGal-3) (Homo sapiens (Human), UniProt P17931); experiment: competitive binding assay: biotinylated hGal-3 binding to microplate-adsorbed asialofetuin (ASF)
How it was run: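 Compounds serially diluted in DMSO compete with asialofetuin for biotinylated human Gal-3; plates are incubated 3 h at 4 °C, washed, then treated 1 h at 4 °C with streptavidin-peroxidase (80 ng/mL) and developed with ABTS. IC50 values are means of several measurements.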

[1] = Table 5, read-out: IC50 (Gal-3 inhibition)
[2] = Table 9, 2-OMe-Gal inhibitors, read-out: IC50 (Gal-3 inhibition)
[3] = Gal-3 inhibition, binding of biotinylated hGal-3 to ASF, mean values, read-out: IC50

Chain of human Gal-1 (hGal-1) (P09382 whole entry): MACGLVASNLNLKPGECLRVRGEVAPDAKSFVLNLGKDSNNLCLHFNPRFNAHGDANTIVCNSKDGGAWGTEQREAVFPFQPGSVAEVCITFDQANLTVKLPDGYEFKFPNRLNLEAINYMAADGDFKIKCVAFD
Chain of human Gal-3 (hGal-3) (P17931 whole entry): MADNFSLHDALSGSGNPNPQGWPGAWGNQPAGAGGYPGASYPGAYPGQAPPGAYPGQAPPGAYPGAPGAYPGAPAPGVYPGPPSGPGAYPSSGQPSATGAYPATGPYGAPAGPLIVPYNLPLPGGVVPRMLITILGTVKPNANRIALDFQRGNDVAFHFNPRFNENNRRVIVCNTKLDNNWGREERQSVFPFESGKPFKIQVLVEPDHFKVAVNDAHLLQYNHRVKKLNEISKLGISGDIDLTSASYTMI

SMILES: Cc1nc(C)c([C@H](S[C@@H]2O[C@H](CO)[C@H](O)[C@H](n3cc(-c4cc(F)c(F)c(F)c4)nn3)[C@H]2O)C2(O)CCC(F)(F)CC2)nc1C [Example 2.44.119S., (2S,3R,4S,5R,6R)-2-(((S)-(4,4-Difluoro-1-hydroxycyclohexyl)(3,5,6-trimethylpyrazin-2-yl)methyl)thio)-6-(hydroxymethyl)-4-(4-(3,4,5-trifluorophenyl)-1H-1,2,3-triazol-1-yl)tetrahydro-2H-pyran-3,5-diol]
- IC50 (human Gal-1 (hGal-1)): 7210 nM
- IC50 (human Gal-3 (hGal-3); [1]): 700 nM

SMILES: CO[C@@H]1[C@@H](n2cc(-c3cc(F)c(F)c(F)c3)nn2)[C@@H](O)[C@@H](CO)O[C@H]1S[C@@H](c1nc(C)c(C)nc1C)C1(O)CCC(F)(F)CC1 [Example 2.44.119S.I., (2R,3R,4S,5R,6S)-6-(((S)-(4,4-Difluoro-1-hydroxycyclohexyl)(3,5,6-trimethylpyrazin-2-yl)methyl)thio)-2-(hydroxymethyl)-5-methoxy-4-(4-(3,4,5-trifluorophenyl)-1H-1,2,3-triazol-1-yl)tetrahydro-2H-pyran-3-ol]
- IC50 (human Gal-1 (hGal-1)): 28600 nM
- IC50 (human Gal-3 (hGal-3); Table 11, read-out: IC50 (Gal-3 inhibition)): 5110 nM

SMILES: Cc1conc1[C@@H](S[C@@H]1O[C@H](CO)[C@H](O)[C@H](n2cc(-c3cc(F)c(F)c(F)c3)nn2)[C@H]1O)C1(O)CCC(F)(F)CC1 [Example 2.44.120R., (2S,3R,4S,5R,6R)-2-(((R)-(4,4-Difluoro-1-hydroxycyclohexyl)(4-methylisoxazol-3-yl)methyl)thio)-6-(hydroxymethyl)-4-(4-(3,4,5-trifluorophenyl)-1H-1,2,3-triazol-1-yl)tetrahydro-2H-pyran-3,5-diol]
- IC50 (human Gal-1 (hGal-1)): 380 nM
- IC50 (human Gal-3 (hGal-3); [1]): 110 nM

SMILES: CO[C@@H]1[C@@H](n2cc(-c3cc(F)c(F)c(F)c3)nn2)[C@@H](O)[C@@H](CO)O[C@H]1S[C@H](c1nocc1C)C1(O)CCC(F)(F)CC1 [Example 2.44.120R.I., (2R,3R,4S,5R,6S)-6-(((R)-(4,4-Difluoro-1-hydroxycyclohexyl)(4-methylisoxazol-3-yl)methyl)thio)-2-(hydroxymethyl)-5-methoxy-4-(4-(3,4,5-trifluorophenyl)-1H-1,2,3-triazol-1-yl)tetrahydro-2H-pyran-3-ol]
- IC50 (human Gal-1 (hGal-1)): 610 nM
- IC50 (human Gal-3 (hGal-3); Table 10, 2-OMe-Gal inhibitors, read-out: IC50 (Gal-3 inhibition)): 210 nM

SMILES: Cc1conc1[C@H](S[C@@H]1O[C@H](CO)[C@H](O)[C@H](n2cc(-c3cc(F)c(F)c(F)c3)nn2)[C@H]1O)C1(O)CCC(F)(F)CC1 [Example 2.44.120S., (2S,3R,4S,5R,6R)-2-(((S)-(4,4-Difluoro-1-hydroxycyclohexyl)(4-methylisoxazol-3-yl)methyl)thio)-6-(hydroxymethyl)-4-(4-(3,4,5-trifluorophenyl)-1H-1,2,3-triazol-1-yl)tetrahydro-2H-pyran-3,5-diol]
- IC50 (human Gal-1 (hGal-1)): 22600 nM
- IC50 (human Gal-3 (hGal-3); [1]): 8270 nM

SMILES: OC[C@H]1O[C@@H](S[C@H](c2ncccc2C(F)(F)F)C2(O)CCC(F)(F)CC2)[C@H](O)[C@@H](n2cc(-c3cc(F)c(F)c(F)c3)nn2)[C@H]1O [Example 2.44.125R., (2S,3R,4S,5R,6R)-2-(((R)-(4,4-Difluoro-1-hydroxycyclohexyl)(3-(trifluoromethyl)pyridin-2-yl)methyl)thio)-6-(hydroxymethyl)-4-(4-(3,4,5-trifluorophenyl)-1H-1,2,3-triazol-1-yl)tetrahydro-2H-pyran-3,5-diol]
- IC50 (human Gal-1 (hGal-1)): 200 nM
- IC50 (human Gal-3 (hGal-3); [1]): 50 nM

SMILES: CO[C@@H]1[C@@H](n2cc(-c3cc(F)c(F)c(F)c3)nn2)[C@@H](O)[C@@H](CO)O[C@H]1S[C@H](c1ncccc1C(F)(F)F)C1(O)CCC(F)(F)CC1 [Example 2.44.125R.I., (2R,3R,4S,5R,6S)-6-(((R)-(4,4-Difluoro-1-hydroxycyclohexyl)(3-(trifluoromethyl)pyridin-2-yl)methyl)thio)-2-(hydroxymethyl)-5-methoxy-4-(4-(3,4,5-trifluorophenyl)-1H-1,2,3-triazol-1-yl)tetrahydro-2H-pyran-3-ol]
- IC50 (human Gal-1 (hGal-1)): 260 nM
- IC50 (human Gal-3 (hGal-3); [2]): 60 nM

SMILES: OC[C@H]1O[C@@H](S[C@@H](c2ncccc2C(F)(F)F)C2(O)CCC(F)(F)CC2)[C@H](O)[C@@H](n2cc(-c3cc(F)c(F)c(F)c3)nn2)[C@H]1O [Example 2.44.125S., (2S,3R,4S,5R,6R)-2-(((S)-(4,4-Difluoro-1-hydroxycyclohexyl)(3-(trifluoromethyl)pyridin-2-yl)methyl)thio)-6-(hydroxymethyl)-4-(4-(3,4,5-trifluorophenyl)-1H-1,2,3-triazol-1-yl)tetrahydro-2H-pyran-3,5-diol]
- IC50 (human Gal-1 (hGal-1)): 3410 nM
- IC50 (human Gal-3 (hGal-3); [1]): 820 nM

SMILES: Cc1cccnc1C(S[C@@H]1O[C@H](CO)[C@H](O)[C@H](n2cc(-c3cc(F)c(F)c(F)c3)nn2)[C@H]1O)C1(O)CCC(F)(F)CC1 (stereo partly drawn) [Example 2.44.126., (2S,3R,4S,5R,6R)-2-(((4,4-Difluoro-1-hydroxycyclohexyl)(3-methylpyridin-2-yl)methyl)thio)-6-(hydroxymethyl)-4-(4-(3,4,5-trifluorophenyl)-1H-1,2,3-triazol-1-yl)tetrahydro-2H-pyran-3,5-diol]
- IC50 (human Gal-1 (hGal-1)): 60 nM
- IC50 (human Gal-3 (hGal-3); [3]): 60 nM

SMILES: CCO[C@@H]1[C@@H](n2cc(-c3cc(F)c(F)c(F)c3)nn2)[C@@H](O)[C@@H](CO)O[C@H]1SC(c1ncccc1C)C1(O)CCC(F)(F)CC1 (stereo partly drawn) [Example 2.44.126.II., (2R,3R,4S,5R,6S)-6-(((4,4-Difluoro-1-hydroxycyclohexyl)(3-methylpyridin-2-yl)methyl)thio)-5-ethoxy-2-(hydroxymethyl)-4-(4-(3,4,5-trifluorophenyl)-1H-1,2,3-triazol-1-yl)tetrahydro-2H-pyran-3-ol]
- IC50 (human Gal-1 (hGal-1)): 1320 nM
- IC50 (human Gal-3 (hGal-3); [3]): 160 nM

SMILES: Cc1cccnc1[C@@H](S[C@@H]1O[C@H](CO)[C@H](O)[C@H](n2cc(-c3cc(F)c(F)c(F)c3)nn2)[C@H]1O)C1(O)CCC(F)(F)CC1 [Example 2.44.126R., (2S,3R,4S,5R,6R)-2-(((R)-(4,4-Difluoro-1-hydroxycyclohexyl)(3-methylpyridin-2-yl)methyl)thio)-6-(hydroxymethyl)-4-(4-(3,4,5-trifluorophenyl)-1H-1,2,3-triazol-1-yl)tetrahydro-2H-pyran-3,5-diol]
- IC50 (human Gal-1 (hGal-1)): 300 nM
- IC50 (human Gal-3 (hGal-3); [3]): 40 nM

SMILES: CO[C@@H]1[C@@H](n2cc(-c3cc(F)c(F)c(F)c3)nn2)[C@@H](O)[C@@H](CO)O[C@H]1S[C@H](c1ncccc1C)C1(O)CCC(F)(F)CC1 [Example 2.44.126R.I., (2R,3R,4S,5R,6S)-6-(((R)-(4,4-Difluoro-1-hydroxycyclohexyl)(3-methylpyridin-2-yl)methyl)thio)-2-(hydroxymethyl)-5-methoxy-4-(4-(3,4,5-trifluorophenyl)-1H-1,2,3-triazol-1-yl)tetrahydro-2H-pyran-3-ol]
- IC50 (human Gal-1 (hGal-1)): 680 nM
- IC50 (human Gal-3 (hGal-3); [2]): 70 nM

SMILES: CCO[C@@H]1[C@@H](n2cc(-c3cc(F)c(F)c(F)c3)nn2)[C@@H](O)[C@@H](CO)O[C@H]1S[C@H](c1ncccc1C)C1(O)CCC(F)(F)CC1 [Example 2.44.126R.II., (2R,3R,4S,5R,6S)-6-(((R)-(4,4-Difluoro-1-hydroxycyclohexyl)(3-methylpyridin-2-yl)methyl)thio)-5-ethoxy-2-(hydroxymethyl)-4-(4-(3,4,5-trifluorophenyl)-1H-1,2,3-triazol-1-yl)tetrahydro-2H-pyran-3-ol]
- IC50 (human Gal-1 (hGal-1)): 870 nM
- IC50 (human Gal-3 (hGal-3); [3]): 110 nM
